# System: Escherichia coli strain ATCC25922
# Experiment: standard microdilution assay to determine minimum inhibitory concentrations (MICs)
# Format: cell-based
# Settings: Escherichia coli strain ATCC25922, microdilution
# Method in brief: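 Broth microdilution MIC against E. coli ATCC25922, following CLSI protocols, typically in a 100 microliter final volume. Results reported as +/− relative to a 16 micrograms/ml cutoff.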
row,Structure (SMILES),E. coli ATCC25922 MIC
1,NCCCCOc1ccc(-c2cn3cc(-c4ccc(C(=O)N5CCNCC5)cc4)[nH]c3nc2=O)cc1 [Compound 847],− (a “−” indicates that the compound has an MIC value greater than 16 micrograms/ml)
2,N=C(N)NCCCCOc1ccc(-c2cn3cc(-c4ccc(C(=O)NC5CCN(C(=N)N)CC5)cc4)[nH]c3nc2=O)cc1 [Compound 848],+ (a “+” indicates that the compound has an MIC value of 16 micrograms/ml or less)
3,N=C(N)NCCCNCc1ccc(-n2cc3cc(-c4ccc(S(=O)(=O)N(CC5COCCO5)C5CCCNC5)cc4)[nH]c3nc2=O)cc1 (stereo not drawn) [Compound 851],+ (a “+” indicates that the compound has an MIC value of 16 micrograms/ml or less)
4,CC1CN(S(=O)(=O)c2ccc(-c3cc4cn(-c5ccc(CNCCCN)cc5)c(=O)nc4[nH]3)cc2)CC(C)N1 (stereo not drawn) [Compound 853],+ (a “+” indicates that the compound has an MIC value of 16 micrograms/ml or less)
5,N=C(N)NCCCNCc1ccc(-n2cc3cc(-c4ccc(S(=O)(=O)N(CCC(=O)Nc5ccc([N+](=O)[O-])cc5)C5CCNCC5)cc4)[nH]c3nc2=O)cc1 [Compound 854],+ (a “+” indicates that the compound has an MIC value of 16 micrograms/ml or less)
6,N=C(N)NCCCNCc1ccc(-n2cc3cc(-c4ccc(S(=O)(=O)N(CCCN5CCS(=O)(=O)CC5)C5CCNCC5)cc4)[nH]c3nc2=O)cc1 [Compound 855],+ (a “+” indicates that the compound has an MIC value of 16 micrograms/ml or less)
7,N=C(N)NCCCNCc1ccc(-n2cc3cc(-c4ccc(S(=O)(=O)N(CCCn5cnnc5)C5CCNCC5)cc4)[nH]c3nc2=O)cc1 [Compound 856],+ (a “+” indicates that the compound has an MIC value of 16 micrograms/ml or less)
8,N=C(N)NCCCNCc1ccc(-n2cc3cc(-c4ccc(S(=O)(=O)N(CC5CC5(F)F)C5CCNCC5)cc4)[nH]c3nc2=O)cc1 (stereo not drawn) [Compound 857],+ (a “+” indicates that the compound has an MIC value of 16 micrograms/ml or less)
9,NCCCNCc1ccc(-n2cc3cc(-c4cc(C(=O)N5CCN(CCO)CC5)cc(N5CCNCC5)c4)[nH]c3nc2=O)cc1 [Compound 860],− (a “−” indicates that the compound has an MIC value greater than 16 micrograms/ml)
10,N=C(N)NCCCNCc1ccc(-n2cc3cc(-c4cc(C(=O)N5CCN(CCO)CC5)cc(N5CCNCC5)c4)[nH]c3nc2=O)cc1 [Compound 861],− (a “−” indicates that the compound has an MIC value greater than 16 micrograms/ml)
11,N=C(N)NCCCNCc1ccc(-n2cc3cc(-c4ccc(S(=O)(=O)N(CCCc5cnc6ncnn6c5)C5CCNCC5)cc4)[nH]c3nc2=O)cc1 [Compound 862],+ (a “+” indicates that the compound has an MIC value of 16 micrograms/ml or less)
12,N=C(N)NCCCNCc1ccc(-n2cc3cc(-c4ccc(S(=O)(=O)NC5CCOCC5)cc4)[nH]c3nc2=O)cc1 [Compound 864],− (a “−” indicates that the compound has an MIC value greater than 16 micrograms/ml)
13,N=C(N)NCCCNCc1ccc(-n2cc3cc(-c4ccc(S(=O)(=O)N(CC5CC5c5ccncc5)C5CCNCC5)cc4)[nH]c3nc2=O)cc1 (stereo not drawn) [Compound 866],+ (a “+” indicates that the compound has an MIC value of 16 micrograms/ml or less)
14,N=C(N)NCCCNCc1ccc(-n2cc3cc(-c4ccc(S(=O)(=O)NC5CCNCC5)cc4)[nH]c3nc2=O)cc1 [Compound 871],+ (a “+” indicates that the compound has an MIC value of 16 micrograms/ml or less)
15,CC1CN(S(=O)(=O)c2ccc(-c3cc4cn(-c5ccc(CNCCCNC(=N)N)cc5)c(=O)nc4[nH]3)cc2)CC(C)N1 (stereo not drawn) [Compound 872],+ (a “+” indicates that the compound has an MIC value of 16 micrograms/ml or less)
16,NCCCNCCCCCn1cc2cc(-c3ccc(S(=O)(=O)NC4CCNCC4)cc3)[nH]c2nc1=O [Compound 873],+ (a “+” indicates that the compound has an MIC value of 16 micrograms/ml or less)
17,NCCCNCc1ccc(-n2cc3cc(-c4cc(C(=O)N5CCS(=O)(=O)CC5)cc(N5CCNCC5)c4)[nH]c3nc2=O)cc1 [Compound 874],− (a “−” indicates that the compound has an MIC value greater than 16 micrograms/ml)

row,Structure (SMILES),E. coli ATCC25922 MIC
1,N=C(N)NCCCNCc1ccc(-n2cc3cc(-c4cc(C(=O)N5CCS(=O)(=O)CC5)cc(N5CCNCC5)c4)[nH]c3nc2=O)cc1 [Compound 875],+ (a “+” indicates that the compound has an MIC value of 16 micrograms/ml or less)
2,N=C(N)NCCCNCc1ccc(-n2cc3cc(-c4ccc(S(=O)(=O)N(Cc5ccccc5SC(F)(F)F)C5CCOCC5)cc4)[nH]c3nc2=O)cc1 [Compound 876],− (a “−” indicates that the compound has an MIC value greater than 16 micrograms/ml)
3,N=C(N)NCCCNCc1ccc(-n2cc3cc(-c4ccc(S(=O)(=O)N(CC5COc6ccccc6O5)C5CCOCC5)cc4)[nH]c3nc2=O)cc1 (stereo not drawn) [Compound 877],− (a “−” indicates that the compound has an MIC value greater than 16 micrograms/ml)
4,CCOC(=O)C1(CN(C2CCNCC2)S(=O)(=O)c2ccc(-c3cc4cn(-c5ccc(CNCCCNC(=N)N)cc5)c(=O)nc4[nH]3)cc2)CC1 [Compound 878],+ (a “+” indicates that the compound has an MIC value of 16 micrograms/ml or less)
5,N=C(N)NCCCNCc1ccc(-n2cc3cc(-c4ccc(S(=O)(=O)N(Cc5cc(OC(F)(F)F)ccc5F)C5CCOCC5)cc4)[nH]c3nc2=O)cc1 [Compound 879],+ (a “+” indicates that the compound has an MIC value of 16 micrograms/ml or less)
6,N=C(N)NCCCNCc1ccc(-n2cc3cc(-c4ccc(S(=O)(=O)N(CCOc5ccc(F)cc5)C5CCOCC5)cc4)[nH]c3nc2=O)cc1 [Compound 880],− (a “−” indicates that the compound has an MIC value greater than 16 micrograms/ml)
7,NCCCNC(=O)c1ccc(-n2cc3cc(-c4ccc(S(=O)(=O)NC5CCNCC5)cc4)[nH]c3nc2=O)cc1 [Compound 892],+ (a “+” indicates that the compound has an MIC value of 16 micrograms/ml or less)
8,N=C(N)NCCCNC(=O)c1ccc(-n2cc3cc(-c4ccc(S(=O)(=O)NC5CCNCC5)cc4)[nH]c3nc2=O)cc1 [Compound 893],+ (a “+” indicates that the compound has an MIC value of 16 micrograms/ml or less)
9,NCCCNCc1ccc(-n2cc3cc(-c4cc(C(=O)N(CCO)CCO)cc(N5CCNCC5)c4)[nH]c3nc2=O)cc1 [Compound 894],− (a “−” indicates that the compound has an MIC value greater than 16 micrograms/ml)
10,N=C(N)NCCCNCc1ccc(-n2cc3cc(-c4cc(C(=O)N(CCO)CCO)cc(N5CCNCC5)c4)[nH]c3nc2=O)cc1 [Compound 895],+ (a “+” indicates that the compound has an MIC value of 16 micrograms/ml or less)
11,N=C(N)NCCCNCc1ccc(-n2cc3cc(-c4ccc(S(=O)(=O)N(CCCc5c[nH]nc5C(F)(F)F)C5CCNCC5)cc4)[nH]c3nc2=O)cc1 [Compound 897],+ (a “+” indicates that the compound has an MIC value of 16 micrograms/ml or less)
12,N=C(N)NCCCNCc1ccc(-n2cc3cc(-c4ccc(S(=O)(=O)N(Cc5ccc(Cl)c(Cl)c5)C5CCOCC5)cc4)[nH]c3nc2=O)cc1 [Compound 898],− (a “−” indicates that the compound has an MIC value greater than 16 micrograms/ml)
13,CN1CCN(CCCN(C2CCNCC2)S(=O)(=O)c2ccc(-c3cc4cn(-c5ccc(CNCCCNC(=N)N)cc5)c(=O)nc4[nH]3)cc2)CC1 [Compound 899],+ (a “+” indicates that the compound has an MIC value of 16 micrograms/ml or less)
14,N=C(N)NCCCNCc1ccc(-n2cc3cc(-c4ccc(C[C@H](N)CO)cc4)[nH]c3nc2=O)cc1 [Compound 907],+ (a “+” indicates that the compound has an MIC value of 16 micrograms/ml or less)
15,NCCCNCc1ccc(-n2cc3cc(-c4cc(C(=O)N5CCC(C(N)=O)CC5)cc(N5CCNCC5)c4)[nH]c3nc2=O)cc1 [Compound 910],− (a “−” indicates that the compound has an MIC value greater than 16 micrograms/ml)
16,N=C(N)NCCCNCc1ccc(-n2cc3cc(-c4cc(C(=O)N5CCC(C(N)=O)CC5)cc(N5CCNCC5)c4)[nH]c3nc2=O)cc1 [Compound 911],− (a “−” indicates that the compound has an MIC value greater than 16 micrograms/ml)

# Same assay, conditions: Escherichia coli, ATCC25922, Escherichia coli strain ATCC25922, microdilution; read-out: E. coli ATCC25922 MIC
row,Structure (SMILES),MIC [µg/mL]
1,NCCCNCc1ccc(-n2cc3cc(-c4ccc(S(=O)(=O)NC5CCNCC5)cc4)[nH]c3nc2=O)cc1 [Compound 852],< 16
2,NCCCNCc1ccc(-n2cc3cc(-c4ccc(C[C@H](N)CO)cc4)[nH]c3nc2=O)cc1 [Compound 867],< 16
3,NCCCNCc1ccc(-n2cc3cc(CCS(=O)(=O)NC4CCNCC4)[nH]c3nc2=O)cc1 [Compound 881],< 16
4,N=C(N)NCCCCCN1CCN(c2cn3cc(-c4ccc(Br)cc4)[nH]c3nc2=O)CC1 [Compound 882],> 16
5,NCCCCCN1CCN(c2cn3cc(-c4ccc(Br)cc4)[nH]c3nc2=O)CC1 [Compound 883],> 16
6,CN(C)Cc1cc2cn(-c3ccc(CNCCCN)cc3)c(=O)nc2[nH]1 [Compound 884],> 16
7,N=C(N)NCCCCCc1ccc(-c2cn3cc(-c4ccc(Br)cc4)[nH]c3nc2=O)cc1 [Compound 885],> 16
8,NCCCCCc1ccc(-c2cn3cc(-c4ccc(Br)cc4)[nH]c3nc2=O)cc1 [Compound 886],> 16
9,N=C(N)NCCCCCn1cc2cc(-c3ccc(S(=O)(=O)NC4CCNCC4)cc3)[nH]c2nc1=O [Compound 887],> 16
10,NCCCCCN1CCN(c2cn3cc(-c4ccc(S(=O)(=O)N5CCNCC5)cc4)[nH]c3nc2=O)CC1 [Compound 900],> 16
11,N=C(N)NCCCOCc1ccc(-c2cn3cc(-c4ccc(Br)cc4)[nH]c3nc2=O)cc1 [Compound 901],> 16
12,NCCCOCc1ccc(-c2cn3cc(-c4ccc(Br)cc4)[nH]c3nc2=O)cc1 [Compound 902],> 16
13,CN(Cc1ccccc1)Cc1cc2cn(-c3ccc(CNCCCN)cc3)c(=O)nc2[nH]1 [Compound 905],> 16
14,CN(Cc1ccccc1)Cc1cc2cn(-c3ccc(CNCCCNC(=N)N)cc3)c(=O)nc2[nH]1 [Compound 906],> 16
15,N=C(N)NCCCCCn1cc2cc(-c3ccc(S(=O)(=O)NC4CCNCC4)cc3)oc2nc1=O [Compound 912],> 16

# Source: US9193731B2, “Antimicrobial compounds and methods of making and using the same” (Melinta Therapeutics, Inc., priority 2009, dated 2015)
